Assay results reported in US20220378920A1, “CONJUGATE OF GalNAc-OLIGONUCLEOTIDE FOR DELIVERY TO LIVER AND MANUFACTURING METHOD THEREOF” (DAIICHI SANKYO COMPANY, LIMITED, priority 2019, published 2022).

What was measured:
[1] = system: ApoB mRNA; experiment: Inhibition of ApoB mRNA expression in human primary hepatocytes, qRT-PCR (Taqman assay); format: cell-based; settings: 72 hours, wells with no compounds added taken as 100%
Experimental: FIG. 3 is a graph showing degradation effects of ApoB mRNA in human primary cultured hepatocytes when ApoB-ASO (white column) and an ApoB-ASO conjugate (filled column) are added to the cells. The amounts of ApoB mRNA in the cells are quantitatively evaluated relatively by qRT-PCR (corrected by the amount of actin mRNA). The Y axis represents relative values (%) in the addition groups when the amount of ApoB mRNA in untreated human primary cultured hepatocytes is taken as 100%.
FBS (Gibco) was added to a Modified Lanford Medium (Nissui Pharmaceutical Co., Ltd) to 10%, to prepare an adhesion medium. Frozen human primary hepatocytes (Gibco, Hu8105) were taken out from a liquid nitrogen tank, thawed at 37° C., then immediately poured into CHRM (Invitrogen), and gently mixed, followed by centrifugation (100 g, 10 minutes) at room temperature. The supernatant was removed with an aspirator, and then an adhesion medium heated to 37° C. was added, to prepare a cell suspension. The number of living cells was counted by an automatic counter (Bio-Rad Laboratories, Inc.), and then the cells were seeded on a collagen-coated 24-well plate (the number of living cells seeded: 1.4 to 2.1×10^5 cells/well). After culture in a CO2 incubator for 4 to 5 hours, the cells were confirmed to be adhered with a microscope, and the compound addition experiment described below was performed.
To a Modified Lanford Medium containing 10% FBS, was added the compound of Reference Example 45 with no GalNAc derivatives bound or the compound of Example 208 with a GalNAc derivative bound, to prepare a compound-containing medium with a target concentration (which was 100 nM in ApoB mRNA, expression evaluation (1) and 10 nM and 100 nM in ApoB mRNA expression evaluation (2), as described below). After the medium of human primary hepatocytes in each well cultured in the 24-well plate had been removed by aspiration, the compound-containing medium was added in an amount of 0.5 mL for each, to start incubation 72 hours later, the later-described RNA extraction experiment was performed
Following incubation, the compound-containing medium in each well of human primary hepatocytes was removed by aspiration and the cells were washed with ice-cooled PBS (0.5 mL). A 1/100 amount of 2-Mercaptoethanol was added to the RTL buffer of the RNeasy Mini QIAcube Kit (QIAGEN K.K.) to prepare a cell lysate. The cell lysate was added in an amount of 400 μL per well and collected after incubation at room temperature for 5 minutes. […]
The reverse transcription reaction was performed as follows. […] 20 μL of the reverse transcription reaction product was diluted 5 times with 80 μL of purified water and stored at −30° C. or evaluated by qRT-PCR as follows. […]

[2] = system: G6PC mRNA (c.648G>T); experiment: Repair of abnormal splicing of G6PC mRNA in 293A cells cotransfected with human G6PC full-length plasmid vector (pcDNA hG6PC (c.648G>T)+Int4), qRT-PCR (SYBR Green); format: cell-based; settings: cotransfection with plasmid vector, oligonucleotide final 20 nM, 24 hours
Experimental: 293A cells were maintained and cultured in a maintenance medium (DMEM, 10% FBS). In the experiment, cells were seeded on a 6-well plate at a density of 2×10^5 cells/well and on a 12-well plate at a density of 1×10^5 cells/well, and the compound of each example and a plasmid vector were simultaneously introduced on the next day, as will be described later, to be used for evaluation.
The compound of each example and a plasmid vector were cotransfected as follows.
In the case of using a 6-well plate, 250 μL of Opti-MEM Medium (Gibco), 0.50 μL of plasmid vector (1 mg/mL), and 4.0 μL (final: 20 nM) of the compound produced in each example (12.5 μM) as solution A and 250 μL of Opti-MEM Medium (Gibco) and 6.0 μL of Lipofectamine2000 (Invitrogen) as solution B were prepared per well, and solution A and solution B were mixed. […]
A human G6PC full-length plasmid vector (pcDNA hG6PC (c.648G>T)+Int4) and each oligonucleotide (15e_001, 15e_002, and the compound of Example 93 of International Publication No. WO 2004/048570 as a control) were cotransfected and evaluated by qRT-PCR (SYBR Green) for whether abnormal splicing due to G6PC (c.648G>T) was repaired. […]

Row | Substance | inhibition of ApoB mRNA expression ([1]; 10 nM) | inhibition of ApoB mRNA expression ([1]; 100 nM) | abnormal splicing of G6PC mRNA due to G6PC (c.648G>T) repaired [2]
1 | ApoB-ASO: oligonucleotide of the Example 24 sequence (SEQ ID No: 96) with no GalNAc units bound (AGCATTGGTATTCA; listed as DNA, further chemistry not given here) | 4.4% | 41.2% | 
2 | 15e_001: oligonucleotide sequence 15e_001, the sequence of Example 8 (SEQ ID No: 40), tested as oligonucleotide (AAUCCGATGGCGAAG; chemistry not given here) [Example 15e_001] |  |  | normalized
3 | X^20-G^e2s-C^e2s-A^s-T^s-T^s-G^s-G^s-T^s-A^s-T^s-T^e2s-C^e2s-A^e2s-H [ApoB-ASO conjugate] | 30.3% | 68.6% | 
